test system: R. oryzae UCP1295; assay: Screening of the Pandemic Response Box library at 5 µM; type: cell-based, Rhizopus oryzae; conditions: 48 h, Table S1, mean of the four values
Procedure, shortened: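 Compounds at 5 μM in RPMI 1640 with 2% glucose and MOPS (0.165 mol/L, pH 7.2), with conidia at 2 × 10^5/mL, incubated 48 h at 37 °C in 5% CO2. Growth read by OD at 600 nm; hits defined as ≥60% inhibition. Posaconazole (5 μM) and 1% DMSO as controls.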

SMILES | % of growth inhibition, Mean
CC(C)(C)c1ccc(Oc2ccc(N)cc2)cc1 [MMV1174026] | -12.8%
O=C(Nc1ccc(-c2ccccc2)cc1)C1=C(O)C(Cc2ccccc2)OC1=O (centres unmarked) [MMV1593531] | -29.2%
O=C(NC12CC3CC(CC(C3)C1)C2)c1cc2ccccc2[nH]1 [MMV1578577] | -4.8%
C(=C\c1nc2ccccc2[nH]1)/c1ccc2c(c1)OCO2 [MMV1582495] | -6.2%
O[C@@](Cn1cnnn1)(c1ccc(F)cc1F)C(F)(F)c1ccc(-c2ccc(OCC(F)(F)F)cc2)cn1 [MMV1634386] | -15.2%
COC(=O)Nc1nc2ccccc2[nH]1 [MMV344625] | -13.3%
CC(C)Oc1ccc(-c2nc(-c3cccc4c3CC[C@@H]4NCCO)no2)cc1C#N [MMV1580492] | -7.3%
CCc1nc(N)nc(N)c1C#CCc1ccccc1 [MMV1581549] | 18.7%
CSc1ccc2c(c1)C(N1CCN(C)CC1)Cc1ccccc1S2 (centres unmarked) [MMV002505] | 8.0%
C[C@H](NC(=O)C(=O)Nc1ccccc1C(C)(C)C)C(=O)N[C@@H](CC(=O)O)C(=O)COc1c(F)c(F)cc(F)c1F [MMV1580794] | 1.8%
COc1cc(C2C3=C(CC(C)(C)CC3=O)Nc3ccccc3N2C(C)=O)ccc1OCc1ccccc1 (centres unmarked) [MMV1634557] | -15.9%
N#C/C(=C1/SC[C@@H](c2ccc(Cl)cc2Cl)S1)n1ccnc1 [MMV1782224] | -14.5%
CN(C/C=C/C#CC(C)(C)C)Cc1cccc2ccccc12 [MMV1634359] | -42.5%
CC1(C)C[C@H]1C(=O)N/C(=C\CCCCSC[C@@H](N)C(=O)O)C(=O)O.[Na+] [MMV1613559] | -16.6%
C[C@H](Cn1cnc2c(N)ncnc21)OCP(=O)(O)O [MMV1580478] | -19.5%
Nc1ccc2oc(=O)ccc2c1I [MMV1581378] | -3.7%
O=c1[nH]c(=O)n(Cc2cccc(Oc3ccccc3)c2)cc1Nc1ccccc1 [MMV1782107] | -3.3%
CCC(C)n1ncn(-c2ccc(N3CCN(c4ccc(OCC5COC(Cn6cncn6)(c6ccc(Cl)cc6Cl)O5)cc4)CC3)cc2)c1=O (centres unmarked) [MMV637528] | -26.8%
O=S(=O)(Nc1cccc2cccnc12)c1ccccc1 [MMV1578890] | 0.6%
CC1CN(c2ncnc3c2c(-c2ccccc2)cn3-c2ccc(F)cc2)CC(C)O1 (centres unmarked) [MMV093250] | -16.0%
Cc1c(CN(C)C(=O)/C=C/c2cnc3c(c2)C(C)(C)C(=O)N3)oc2ccccc12 [MMV1579788] | -28.8%
NC(=S)N/N=C/c1ncccc1N [MMV1580496] | -9.1%
Nc1nc(F)nc2c1ncn2[C@@H]1O[C@H](CO)[C@@H](O)[C@@H]1O [MMV637413] | -6.9%
COc1ccc2sc3c(c2c1)NC(C)CNC3=O (centres unmarked) [MMV1782115] | -2.6%
C[C@@]1(O)[C@H](O)[C@@H](CO)O[C@H]1n1ccc2c(N)ncnc21 [MMV1593519] | 10.3%
OCCC#Cc1nc(-c2ccc(F)cc2)c(-c2ccncc2)n1CCCc1ccccc1 [MMV1580797] | -16.9%

SMILES | % of growth inhibition, Mean
COc1ccc(OCc2ccc(COc3c(Cl)cccc3Cl)cc2)c(Cl)c1 [MMV1580485] | -2.8%
Cc1c(N)cccc1Cn1ccc(OCCc2cccs2)cc1=O [MMV1578557] | -5.6%
CCCCCCCCCN1C[C@@H](O)[C@H](O)[C@@H](O)[C@@H]1CO [MMV1593513] | -2.2%
CC(C)N=c1cc2n(-c3ccc(Cl)cc3)c3ccccc3nc-2cc1Nc1ccc(Cl)cc1 [MMV687800] | -1.7%
CC(=O)Nc1cc(NS(=O)(=O)c2ccc(Cl)cc2)cc2c(Cl)n[nH]c12 [MMV1579779] | -33.3%
O=C(NC(=O)N1CCCc2ccccc21)c1cccc(Cl)c1 [MMV1782351] | -17.9%
CCc1cc(CCC(=O)Nc2ccccc2O)c(=O)[nH]c1C [MMV1782106] | -2.0%
CCN(CC)CCCC(C)Nc1ccnc2cc(Cl)ccc12 (centres unmarked) [MMV000008] | -3.5%
O=C(NCc1cccc2ccccc12)c1cccs1 [MMV1579845] | -15.7%
O=C(Nc1nnc(-c2ccc(Cl)cc2)o1)c1ccc(F)cc1 [MMV1782140] | -4.1%
O=C(Nc1ccc(F)cc1)c1nn(-c2ccccc2)c(=O)cc1Cl [MMV1578555] | -18.6%
C[C@@H](c1nc(-c2ccc(C#N)cc2)cs1)[C@](O)(Cn1cncn1)c1ccc(F)cc1F [MMV1634362] | -36.2%
CC(C)Nc1nc2cc(Cl)c(Cl)cc2n1[C@H]1O[C@@H](CO)[C@H](O)[C@@H]1O [MMV1593521] | -13.4%
OC(Cn1cncn1)(Cn1cncn1)c1ccc(F)cc1F [MMV002337] | -36.5%
Cc1ccc(C)c(OCCCCCCN2C[C@H](O)[C@@H](O)[C@H](O)[C@H]2CO)c1 [MMV1634401] | 10.8%
O=C(/C=C\n1cnc(-c2cc(C(F)(F)F)cc(C(F)(F)F)c2)n1)NNc1ccccn1 [MMV1580493] | 42.7%
O=C(Nc1ccccc1)N(Cc1cc(Br)ccc1O)c1ccc(F)cc1 [MMV1581552] | -12.1%
CCNC(=O)Nc1cn2c(-c3ncc(CC)cn3)cc(-c3cccnc3)cc2n1 [MMV1782403] | -42.7%
N#Cc1c(F)c(Cl)c(NCc2ccccc2)c(C#N)c1F [MMV1582496] | -1.3%
CC(=N)N1CC[C@H](SC2=C(C(=O)O)N3C(=O)[C@@H]([C@@H](C)O)[C@H]3C2)C1 [MMV1582382] | -12.0%
O=C1c2cccc3cccc(c23)C(=O)N1CC1CO1 (centres unmarked) [MMV1634360] | -18.1%
Nc1c(C(=O)NCc2ccco2)c2nc3ccccc3nc2n1CCN1CCCCC1 [MMV099714] | -2.7%
CC(C)Cn1c(=O)n(C)c(=O)c2c(-c3cncn3C)n(Cc3cccc4ccccc34)nc21 [MMV1581559] | -18.9%
CCc1c(O)nc2ccc(F)cc2c1OCC1CCC1 [MMV1634395] | -20.7%
CCC(C)(C)c1ccc(CC(C)CN2C[C@@H](C)O[C@@H](C)C2)cc1.Cl (some centres unmarked) [MMV1634358] | -26.0%
Cc1oncc1C(=O)Nc1ccc(C(F)(F)F)cc1 [MMV003291] | 4.9%

SMILES | % of growth inhibition, Mean
NC(N)=NCCCCC(=O)Nc1cc(C(F)(F)F)cc(NC(=O)c2cc(C(=O)Nc3cc(C(F)(F)F)cc(NC(=O)CCCCN=C(N)N)c3O[C@@H]3CCNC3)ncn2)c1O[C@@H]1CCNC1 [MMV1634402] | -4.8%
O=c1oc2ccc(Br)cc2cc1CSc1ncc[nH]1 [MMV1782105] | -13.4%
NC(=O)c1c(N)sc2c1CCCCC2 [MMV056052] | -8.7%
O=C(NN1C(=O)[C@@H]2C3C=CC([C@H]4C[C@@H]34)[C@@H]2C1=O)c1ccc(C(F)(F)F)cc1 [MMV1782114] | -5.7%
CC(C)N(c1cc(-c2ccccc2)sc1C(=O)O)C(=O)[C@H]1CC[C@H](C)CC1 [MMV1634388] | -4.7%
Cc1ccc(NC(=O)c2cc(Cl)ccc2O)cc1 [MMV1578897] | -1.2%
CC1(C)CC(NC(=O)C(=O)Nc2ccc(Cl)cc2)CC(C)(C)N1 [MMV1580501] | -11.4%
CC(=O)N1c2ccccc2NC2=C(C(=O)CC(C)(C)C2)C1c1ccc(OCc2ccccc2)cc1 (centres unmarked) [MMV1580503] | -1.0%
Nc1ccc(-c2nc3cc(C(F)(F)F)ccc3n2C23CC4CC(CC(C4)C2)C3)cc1 [MMV1634385] | -6.2%
NC(=O)c1nccn([C@@H]2O[C@H](CO)[C@@H](O)[C@H]2O)c1=O [MMV1782104] | -4.9%
Nc1nc(=O)c(Br)c(-c2ccccc2)[nH]1 [MMV690540] | -23.8%
Fc1ccc(-c2nc(-c3c[nH]c4ccc(Br)cc34)[nH]c2-c2ccc(F)cc2)cc1 [MMV1593537] | -11.7%
CCOC(=O)N[C@@H]1CC[C@@H]2[C@@H](C1)C[C@H]1C(=O)O[C@H](C)[C@H]1[C@H]2/C=C/c1ccc(-c2cccc(F)c2)cn1 [MMV1593515] | 26.6%
COc1ccc2cc3[n+](cc2c1OCCN(CCn1cncn1)Cc1ccc(F)cc1F)CCc1cc2c(cc1-3)OCO2 [MMV1593540] | -0.6%
CCCC1(C2CC2)c2cc(Cl)ccc2NC(=O)N1C (centres unmarked) [MMV1782113] | -5.2%
CNC(=O)C1O[C@@H](n2cnc3c(NCc4cccc(I)c4)nc(Cl)nc32)[C@H](O)[C@@H]1O (some centres unmarked) [MMV1593514] | -5.2%
O=C(Cn1cnc2ccccc2c1=O)Nc1ccccc1 [MMV1578891] | -16.0%
OCCCCn1cnc2c(O)nc(NCc3ccc(Cl)c(Cl)c3)nc21 [MMV1593542] | -14.0%
O=c1[nH]cnc2c1ncn2[C@H]1CC[C@@H](CO)O1 [MMV637306] | -2.1%
C[Si]1(C)CCN(Cc2cc(-c3ccc(Cl)cc3)n(-c3ccc(Cl)cc3)n2)CC1 [MMV1580843] | -17.9%
Cc1c(OCC(F)(F)F)ccnc1C[S+]([O-])c1nc2ccccc2[nH]1 (centres unmarked) [MMV001438] | -13.2%
N[C@@H]1CN(c2c(F)cc3c(=O)c(C(=O)O)cn([C@@H]4C[C@@H]4F)c3c2Cl)CC12CC2 [MMV1579850] | -4.9%
O=C(c1ccc(F)cc1)N1CCN2C(=O)c3ccccc3C12c1ccccc1 (centres unmarked) [MMV1165877] | -2.4%
COc1cc(C(C)(C)CCCC(C)C)cc(OC)c1OC [MMV1782102] | -11.2%
N[C@H]1CCC[C@H]1C(=O)O [MMV1634361] | -8.8%

Source: PMC9959553, “Promising Antifungal Molecules against Mucormycosis Agents Identified from Pandemic Response Box®: In Vitro and In Silico Analyses” (Journal of Fungi, 2023)
